Source: publication PMC3758491 (Pesticide biochemistry and physiology, 2013)
Read-outs that look alike come from different tables or passages of the source.

Columns and labels:
murine AChE (mAChE) [1] = biological target: T1, murine AChE (mAChE) (Mus musculus, UniProt P21836); assay: biochemical; assay type: binding
T1 sequence (P21836 32-614): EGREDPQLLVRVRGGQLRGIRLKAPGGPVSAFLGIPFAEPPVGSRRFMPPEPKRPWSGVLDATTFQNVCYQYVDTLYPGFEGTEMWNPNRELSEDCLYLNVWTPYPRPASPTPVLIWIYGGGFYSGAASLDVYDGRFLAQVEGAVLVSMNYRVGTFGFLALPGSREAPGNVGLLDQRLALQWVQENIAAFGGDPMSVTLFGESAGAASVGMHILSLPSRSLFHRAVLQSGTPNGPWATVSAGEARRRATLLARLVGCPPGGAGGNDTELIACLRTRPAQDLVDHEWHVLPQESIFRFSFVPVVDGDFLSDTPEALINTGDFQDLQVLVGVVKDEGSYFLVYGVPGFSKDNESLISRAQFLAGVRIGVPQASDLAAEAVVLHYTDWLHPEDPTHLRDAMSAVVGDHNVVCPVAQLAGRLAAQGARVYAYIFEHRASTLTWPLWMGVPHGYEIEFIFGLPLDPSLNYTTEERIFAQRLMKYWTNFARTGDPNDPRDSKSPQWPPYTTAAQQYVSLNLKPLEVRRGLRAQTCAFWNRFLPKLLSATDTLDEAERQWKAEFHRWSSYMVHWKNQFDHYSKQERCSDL

murine AChE (mAChE) [2] = biological target: T1, murine AChE (mAChE); assay: biochemical
murine AChE (mAChE) [3] = biological target: T1, murine AChE (mAChE); assay: Equilibrium binding of TFT to mAChE
human recombinant AChE = settings: cited from earlier work
[4] = IC50 values (Mean ± SEM), Reduction of TFT Fluorescence
[5] = IC50 values (Mean ± SEM), Reduction of AChE activity
[6] = read-out: IC50 values (Mean ± SEM), Reduction of TFT Fluorescence, pH 7.4
[7] = read-out: IC50 values (Mean ± SEM), Reduction of AChE activity, pH 7.4

Row | Compound | Ratio = IC50 TFT assay/IC50 Ellman assay (murine AChE (mAChE) [1]) | IC50 (murine AChE (mAChE) [1]; [4]) | IC50 (murine AChE (mAChE) [2]; [5]) | further results
1 | CNC(=O)O/N=C/C(C)(C)SC [Aldicarb, aldicarb] | 0.9 | 565 nM | 645 nM | 
2 | C=CC[N+](C)(C)c1ccc(CCC(=O)CCc2ccc([N+](C)(C)CC=C)cc2)cc1.[Br-].[Br-] [BW284C51, BW284c51] | 1.9 |  |  | IC50 (murine AChE (mAChE) [1]; [6]): 8.3 nM; IC50 (murine AChE (mAChE) [2]; [7]): 4.4 nM
3 | CNC(=O)Oc1cccc2c1OC(C)(C)O2 [Bendiocarb, bendiocarb] | 0.4 | 20 nM | 46 nM | 
4 | CNC(=O)Oc1cccc(C(C)(C)C)c1 [Compound 1, 3-tert-butylphenyl methylcarbamate] | 0.4 | 25 nM | 62 nM | 
5 | CCC(C)CSc1ccccc1OC(=O)NC (stereo not shown) [Compound 2, 2-(2-methylbutylthio)phenyl methylcarbamate] | 0.9 | 8900 nM | 10300 nM | 
6 | CC[N+](C)(C)c1cccc(O)c1 [Edrophonium, edrophonium] | 0.33 | 1120 nM | 3430 nM | fold lower IC50 in TFT assay than in Ellman assay (murine AChE (mAChE) [1]): 3 fold; maximum percentage reduction of total TFT fluorescence (murine AChE (mAChE) [1]): around 30%
7 | CC[n+]1c(-c2ccccc2)c2cc(N)ccc2c2ccc(N)cc21 [Ethidium Bromide, ethidium bromide] | 4.1 | 16000 nM | 4000 nM | TFT/Ellman IC50 ratio (murine AChE (mAChE) [1]): around four times higher
8 | Cc1nc(N(C)C)nc(OC(=O)N(C)C)c1C [Pirimicarb, pirimicarb] | 0.6 | 454 nM | 738 nM | 
9 | CC[N+](C)(CC)CCC[n+]1c(-c2ccccc2)c2cc(N)ccc2c2ccc(N)cc21 [Propidium Iodide, propidium iodide] | 1.0 | 670 nM | 662 nM | TFT fluorescence remaining after adding propidium iodide (murine AChE (mAChE) [1]): 0%; IC50 (murine AChE (mAChE) [1]; IC50, TFT assay): 700 nM; IC50 (murine AChE (mAChE) [2]; IC50, Ellman assay): 700 nM
10 | CNC(=O)Oc1ccccc1OC(C)C [Propoxur, propoxur] | 0.13 | 60 nM | 466 nM | fold lower IC50 in TFT assay than in Ellman assay (murine AChE (mAChE) [1]): 7.7 fold
11 | Cc1ccc2c(c1)sc(-c1ccc(N(C)C)cc1)[n+]2C [TFT, thioflavin-T] |  |  |  | Kd (murine AChE (mAChE) [3]): 1400 ± 200 nM; increase of TFT fluorescence in the presence of mAChE over free solution (murine AChE (mAChE) [3]; 10 uM TFT): 1.96 fold; Bmax, maximum specific TFT fluorescence in the presence of mAChE (murine AChE (mAChE) [3]; mean ± SEM, n = 7): 562 ± 23 fluorescent units; Kd (human recombinant AChE; read-out: Kd of TFT, ref De Ferrari et al. [17]): 890 nM; Kd (human recombinant AChE; read-out: Kd of TFT, ref Sultatos and Kaushik [13]): 360 nM
12 | COc1cc2c3cc1Oc1cc(ccc1O)C[C@@H]1c4c(cc(OC)c(O)c4Oc4ccc(cc4)C[C@@H]3N(C)CC2)CC[N+]1(C)C [Tubocurarine, d-tubocurarine] | 0.7 | 50000 nM | 69000 nM | IC50 (murine AChE (mAChE) [1]; IC50, TFT assay): 50000 to 70000 nM; IC50 (murine AChE (mAChE) [2]; IC50, Ellman assay): 50000 to 70000 nM
13 | benzylpiperidine | 0.95 |  |  | maximum percentage reduction of total TFT fluorescence (murine AChE (mAChE) [1]): around 30%; IC50 (murine AChE (mAChE) [1]; [6]): 159000 nM; IC50 (murine AChE (mAChE) [1]; read-out: potency (IC50) for reducing thioflavin-T fluorescence): 159000 nM; IC50 (murine AChE (mAChE) [2]; [7]): 167000 nM
